Source: ChEMBL document CHEMBL1155778, “The many roles for fluorine in medicinal chemistry” (J Med Chem, 2008)
Each block holds one compound with its values, some of them ahead of it.

Assays:
[1] = Dissociation constant, pKa of the compound; format: physicochemical
Meriones unguiculatus = assay: Inhibition of GR-73632-induced foot-tapping in iv dosed gerbils after 24 hrs; format: functional; settings: read-out: ID50 (the source's name)
Cavia porcellus = assay: Inhibition of resiniferatoxin-induced systemic vascular leakage in po dosed guinea pig […] model after 24 hrs; format: functional
Substance-P receptor = Substance-P receptor (Homo sapiens, UniProt P25103); assay: Inhibition of NK1 receptor
Cathepsin K = molecular target: T1, Cathepsin K (Homo sapiens, UniProt P43235); assay: Inhibition of cathepsin K
T1 sequence (P43235 whole entry): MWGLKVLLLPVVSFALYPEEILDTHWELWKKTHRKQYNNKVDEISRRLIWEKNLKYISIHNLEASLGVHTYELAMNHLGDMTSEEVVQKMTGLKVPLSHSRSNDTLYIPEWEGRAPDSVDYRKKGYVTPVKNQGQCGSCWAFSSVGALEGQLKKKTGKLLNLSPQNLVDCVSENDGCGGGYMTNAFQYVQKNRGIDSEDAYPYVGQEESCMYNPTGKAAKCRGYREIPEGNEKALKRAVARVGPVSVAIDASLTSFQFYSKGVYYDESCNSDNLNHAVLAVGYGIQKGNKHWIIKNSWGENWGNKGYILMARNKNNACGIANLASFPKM

[2] = Half life in rat plasma at 2 mg/kg, po; format: ADME, organism-based; parameters: dose 2 mg/kg, route oral
[3] = Plasma clearance in rat at 2 mg/kg, po; format: ADME, organism-based; parameters: dose 2 mg/kg, route oral
[4] = Oral bioavailability in rat; format: ADME, organism-based; settings: in vivo
[5] = Cmax in rat at 2 mg/kg, po; format: ADME, organism-based; parameters: dose 2 mg/kg, route oral; settings: in vivo
Cannabinoid receptor 1 = Cannabinoid receptor 1 (Homo sapiens, UniProt P21554); assay: Displacement of [3H]CP-55940 from human CB1 receptor expressed in CHO cells; format: cell-based
[6] = Metabolic stability in rat hepatocytes after 2 hrs
[7] = Half life in rat plasma at 10 mg/kg, po; format: ADME, organism-based; parameters: dose 10 mg/kg, route oral
[8] = Plasma clearance in rat at 10 mg/kg, po; format: ADME, organism-based; parameters: dose 10 mg/kg, route oral
[9] = Drug level in duct cannulated rat bile at 5 mg/kg, iv; format: ADME, organism-based; parameters: dose 5 mg/kg, route intravenous; settings: in vivo, read-out: Drug uptake
Liver microsomes = assay: Metabolic stability in human liver microsomes assessed as covalent protein binding per mg of protein; format: ADME, Microsome
Prothrombin = Prothrombin (Homo sapiens, UniProt P00734); assay: Inhibition of human thrombin
[10] = molecular target: T2, Prostaglandin D2 receptor (Homo sapiens, UniProt Q13258)
T2 sequence (Q13258 whole entry): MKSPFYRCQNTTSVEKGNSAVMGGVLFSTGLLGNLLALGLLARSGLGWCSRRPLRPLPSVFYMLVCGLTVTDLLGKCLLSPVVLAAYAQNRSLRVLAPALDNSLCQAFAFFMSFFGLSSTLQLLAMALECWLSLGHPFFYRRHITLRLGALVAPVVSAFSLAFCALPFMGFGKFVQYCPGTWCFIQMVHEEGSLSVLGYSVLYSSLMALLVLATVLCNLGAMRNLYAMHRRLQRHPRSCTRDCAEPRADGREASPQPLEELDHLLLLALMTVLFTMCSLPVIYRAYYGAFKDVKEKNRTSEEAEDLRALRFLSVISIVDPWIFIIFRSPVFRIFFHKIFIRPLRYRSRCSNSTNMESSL

[11] = Cmax in rat at 10 mg/kg, po; format: ADME, organism-based; parameters: dose 10 mg/kg, route oral; settings: in vivo
[12] = Half life in human plasma; format: ADME, organism-based

Chain of Cannabinoid receptor 1 (P21554 whole entry): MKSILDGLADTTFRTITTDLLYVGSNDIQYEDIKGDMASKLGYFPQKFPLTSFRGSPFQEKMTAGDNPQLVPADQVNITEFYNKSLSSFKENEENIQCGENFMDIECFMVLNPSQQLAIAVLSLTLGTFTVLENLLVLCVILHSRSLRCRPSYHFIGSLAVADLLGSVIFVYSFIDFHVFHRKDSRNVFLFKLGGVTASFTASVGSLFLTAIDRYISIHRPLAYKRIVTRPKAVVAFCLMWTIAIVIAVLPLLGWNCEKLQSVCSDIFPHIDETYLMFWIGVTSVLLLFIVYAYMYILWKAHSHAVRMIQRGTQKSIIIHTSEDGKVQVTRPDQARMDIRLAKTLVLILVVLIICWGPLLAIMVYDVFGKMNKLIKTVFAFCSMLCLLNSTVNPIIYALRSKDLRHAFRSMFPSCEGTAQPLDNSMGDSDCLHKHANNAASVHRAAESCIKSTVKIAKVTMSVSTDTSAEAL
Chain of Substance-P receptor (P25103 whole entry): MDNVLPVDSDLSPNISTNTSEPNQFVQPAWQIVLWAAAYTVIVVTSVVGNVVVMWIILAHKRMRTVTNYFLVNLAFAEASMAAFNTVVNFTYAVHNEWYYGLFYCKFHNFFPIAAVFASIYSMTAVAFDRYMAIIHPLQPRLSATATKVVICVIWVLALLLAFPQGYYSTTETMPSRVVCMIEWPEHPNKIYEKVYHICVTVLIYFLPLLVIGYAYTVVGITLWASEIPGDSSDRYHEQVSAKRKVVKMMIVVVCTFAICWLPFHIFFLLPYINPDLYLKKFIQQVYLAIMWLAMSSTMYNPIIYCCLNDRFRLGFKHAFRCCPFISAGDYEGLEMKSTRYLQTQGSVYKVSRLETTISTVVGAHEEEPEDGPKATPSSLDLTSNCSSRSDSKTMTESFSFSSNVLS

pKa [1]: 3.27
SMILES: O=C(O)c1ccccc1F

SMILES: Nc1cccc(C(F)(F)F)c1
pKa [1]: 3.49

SMILES: Nc1ccc(C(F)(F)F)cc1
pKa [1]: 2.57

SMILES: Fc1ccccn1
pKa [1]: -0.44

pKa [1]: 2.97
SMILES: Fc1cccnc1

pKa [1]: 2.36
SMILES: Fc1cnc2ccccc2c1

pKa [1]: 3.68
SMILES: Fc1cccc2ncccc12

pKa [1]: 4
SMILES: Fc1ccc2ncccc2c1

pKa [1]: 4.04
SMILES: Fc1ccc2cccnc2c1

pKa [1]: 3.1
SMILES: Fc1cccc2cccnc12

SMILES: O=c1[nH]nc(CN2CCO[C@H](OCc3cc(C(F)(F)F)cc(C(F)(F)F)c3)[C@@H]2c2ccc(F)cc2)[nH]1
ED50 (Meriones unguiculatus): 1.24 mg/kg
ID90 (Cavia porcellus): 2.3 mg/kg

SMILES: C[C@@H](O[C@H]1OCCN(Cc2n[nH]c(=O)[nH]2)[C@H]1c1ccccc1)c1cc(C(F)(F)F)cc(C(F)(F)F)c1
ED50 (Meriones unguiculatus): 1.11 mg/kg
IC50 (Substance-P receptor): 0.09 nM
ID90 (Cavia porcellus): 2.3 mg/kg

pKa [1]: 3.2
SMILES: Nc1ccccc1F

IC50 (Cathepsin K): ≤ 0.005 nM
SMILES: CC(C)C[C@H](N[C@@H](c1ccc(-c2ccc(N3CCNCC3)cc2)cc1)C(F)(F)F)C(=O)NCC#N

half-life [2]: 1.6 h
CL/F [3]: 43 mL/min/kg
SMILES: N[C@@H](CC(=O)N1CCn2c(nnc2C(F)(F)F)C1)Cc1cc(F)ccc1F

half-life [2]: 2.8 h
bioavailability [4]: 9%
Cmax [5]: 0.18 µM
CL/F [3]: 33 mL/min/kg
SMILES: C[C@H](NC(=O)C(C)(C)Oc1ccccc1)[C@@H](Cc1ccc(Cl)cc1)c1ccccc1

IC50 (Cannabinoid receptor 1): 1.47 nM
half-life [2]: 2.4 h
Cmax [5]: 0.3 µM
CL/F [3]: 35 mL/min/kg
SMILES: C[C@H](NC(=O)C(C)(C)Oc1cc(F)cc(F)c1)[C@@H](Cc1ccc(Cl)cc1)c1ccccc1

pKa [1]: 8.73
SMILES: Oc1ccccc1F

half-life [2]: 1.7 h
CL/F [3]: 70 mL/min/kg
SMILES: CCc1nnc2n1CCN(C(=O)C[C@H](N)Cc1cc(F)c(F)cc1F)C2

half-life [2]: 1.8 h
CL/F [3]: 51 mL/min/kg
SMILES: N[C@@H](CC(=O)N1CCn2c(nnc2C(F)(F)F)C1)Cc1ccc(F)c(F)c1

pKa [1]: 3.87
SMILES: O=C(O)c1cccc(F)c1

pKa [1]: 4.14
SMILES: O=C(O)c1ccc(F)cc1

pKa [1]: 4.65
SMILES: Nc1ccc(F)cc1

IC50 (Cathepsin K): 0.4 nM
SMILES: N#CCNC(=O)C1(NC(=O)c2ccc(-c3ccc(N4CCNCC4)cc3)cc2)CCCCC1

IC50 (Cannabinoid receptor 1): 0.54 nM
half-life [2]: 2.2 h
bioavailability [4]: 100%
Cmax [5]: 1.2 µM
CL/F [3]: 35 mL/min/kg
SMILES: C[C@H](NC(=O)C(C)(C)Oc1ccc(C(F)(F)F)cn1)[C@@H](Cc1ccc(Cl)cc1)c1ccccc1

half-life [2]: 2.2 h
bioavailability [4]: 29%
Cmax [5]: 0.44 µM
CL/F [3]: 25 mL/min/kg
SMILES: C[C@H](NC(=O)C(C)(C)Oc1ccccn1)[C@@H](Cc1ccc(Cl)cc1)c1ccccc1

remaining at 2 h [6]: 93%
half-life [7]: 1.4 h
bioavailability [4]: 100%
CL/F [8]: 14 mL/min/kg
concentration [9]: 1100 µM
Activity (Liver microsomes): 18 pmol/h
SMILES: CC(=O)c1cc(S(C)(=O)=O)cc2c3c(n(Cc4ccc(Cl)cc4)c12)[C@@H](CC(=O)O)CC3

pKa [1]: 3.06
SMILES: O=C(O)CC(F)(F)F

SMILES: O=C(O)C(F)F
pKa [1]: 1.24

SMILES: Cc1nnn[nH]1
pKa [1]: 4.9

half-life [2]: 1 h
CL/F [3]: 40 mL/min/kg
SMILES: N[C@@H](CC(=O)N1CCn2cnnc2C1)Cc1cc(F)c(F)cc1F

SMILES: N=C(N)c1ccc([C@H]2C3C(=O)N(Cc4ccccc4F)C(=O)C3C3CCCN32)cc1 (some centres not stated)
Ki (Prothrombin): 500 nM

SMILES: N=C(N)c1ccc([C@H]2C3C(=O)N(Cc4cccc(F)c4)C(=O)C3C3CCCN32)cc1 (some centres not stated)
Ki (Prothrombin): 360 nM

IC50 (Cathepsin K): 5 nM
SMILES: N#CCNC(=O)C1(N[C@@H](c2ccc(-c3ccc(N4CCNCC4)cc3)cc2)C(F)(F)F)CCCCC1

IC50 (Cathepsin K): 0.015 nM
SMILES: CC(C)C[C@H](NC(=O)c1ccc(-c2ccc(N3CCNCC3)cc2)cc1)C(=O)NCC#N

pKa [1]: 1.7
SMILES: FC(F)(F)c1nnn[nH]1

half-life [2]: 2.3 h
CL/F [3]: 58 mL/min/kg
SMILES: N[C@@H](CC(=O)N1CCn2c(nnc2C(F)(F)C(F)(F)F)C1)Cc1cc(F)c(F)cc1F

remaining at 2 h [6]: 35%
half-life [7]: 4 h
bioavailability [4]: 52%
CL/F [8]: 1.9 mL/min/kg
Ki [10]: 1.1 nM
Cmax [11]: 21 µM
concentration [9]: 81 µM
Activity (Liver microsomes): 46 pmol/h
SMILES: CC(=O)c1cc(F)cc2c3c(n(Cc4ccc(Cl)cc4)c12)C(CC(=O)O)CC3 (configuration not stated)

SMILES: O=c1[nH]nc(CN2CCO[C@H](OCc3cc(C(F)(F)F)cc(C(F)(F)F)c3)[C@@H]2c2ccccc2)[nH]1
ED50 (Meriones unguiculatus): 2.88 mg/kg
ID90 (Cavia porcellus): 5.4 mg/kg

pKa [1]: 9.89
SMILES: Oc1ccc(F)cc1

pKa [1]: 9.29
SMILES: Oc1cccc(F)c1

pKa [1]: 8.9
SMILES: Oc1cccc(C(F)(F)F)c1

pKa [1]: 3.79
SMILES: O=C(O)c1cccc(C(F)(F)F)c1

SMILES: C[C@@H](O[C@H]1OCCN(Cc2n[nH]c(=O)[nH]2)[C@H]1c1ccc(F)cc1)c1cc(C(F)(F)F)cc(C(F)(F)F)c1 [APREPITANT]
ED50 (Meriones unguiculatus): 0.33 mg/kg
ID90 (Cavia porcellus): 1.8 mg/kg

half-life [12]: 11.2 h
SMILES: Cc1ccc(-c2cc(C(F)(F)F)nn2-c2ccc(S(N)(=O)=O)cc2)cc1 [CELECOXIB]

SMILES: CS(=O)(=O)c1cc(F)cc2c3c(n(Cc4ccc(Cl)cc4)c12)C(CC(=O)O)CC3 (stereo not drawn) [DIASTEREOMER 2]
remaining at 2 h [6]: 32%
half-life [7]: 7 h
bioavailability [4]: 79%
CL/F [8]: 2.4 mL/min/kg
Cmax [11]: 39 µM
concentration [9]: 103 µM

half-life [2]: 1.7 h
CL/F [3]: 60 mL/min/kg
SMILES: N[C@@H](CC(=O)N1CCn2c(nnc2C(F)(F)F)C1)Cc1cc(F)c(F)cc1F [SITAGLIPTIN]

half-life [2]: 2.7 h
Cmax [5]: 0.49 µM
CL/F [3]: 33 mL/min/kg
SMILES: C[C@H](NC(=O)C(C)(C)Oc1ccc(C(F)(F)F)cn1)[C@@H](Cc1ccc(Cl)cc1)c1cccc(C#N)c1 [TARANABANT]

SMILES: OCC(F)(F)F [TRIFLUOROETHANOL]
pKa [1]: 12.4
